The nature of data set [1]: cell viability assay (cytotoxicity) in HEK293 cells. The settings on record: human, read-out: CC50 (50% cytotoxicity concentration). Type of data set: cell-based.
In the next data set the test system is West Nile virus. Kind of data set: anti-West Nile virus activity of xanthine analogs in HEK293 cells. Type of data set: cell-based. The settings on record: HEK293, read-out: EC90 (effective concentration to inhibit 90% of virus).

Molecules are shown by their SMILES.

As for `Cc1ccc(C)c(CN2CCN(c3nc4c(c(=O)[nH]c(=O)n4C)n3Cc3cccc(F)c3)CC2)c1` [Compound 13, 8-(4-(2,5-Dimethylbenzyl)piperazin-1-yl)-7-(3-fluorobenzyl)-3-methyl-3,7-dihydro-1H-purine-2,6-dione], the CC50 in data set [1] was above 30 µM. In the data set on West Nile virus, the EC90 turned out to be 5.7 µM.
For `Cc1ccc(C)c(CN2CCN(c3nc4c(c(=O)n(C)c(=O)n4C)n3Cc3ccccc3F)CC2)c1` [Compound 2, 8-(4-(2,5-dimethylbenzyl)piperazin-1-yl)-7-(2-fluorobenzyl)-1,3-dimethyl-3,7-dihydro-1H-purine-2,6-dione], in that order: above 40 µM and 1.1 µM.
With `Cc1ccc(C)c(CN2CCN(c3nc4c(c(=O)[nH]c(=O)n4C)n3Cc3ccccc3C(F)(F)F)CC2)c1` [Compound 12, 8-(4-(2,5-Dimethylbenzyl)piperazin-1-yl)-3-methyl-7-(2-(trifluoromethyl)benzyl)-3,7-dihydro-1H-purine-2,6-dione], the CC50 in data set [1] amounted to 12 µM. Moreover, the EC90 with West Nile virus worked out at 1.1 µM.
Turning to `Cn1c(=O)[nH]c(=O)c2c1nc(N1CCOCC1)n2Cc1ccccc1F` [Compound 22, 7-(2-Fluorobenzyl)-3-methyl-8-morpholino-3,7-dihydro-1H-purine-2,6-dione], the CC50 in data set [1] is above 40 µM. In addition, the EC90 in the data set on West Nile virus is above 10 µM.
Consider `Cn1c(=O)[nH]c(=O)c2c1nc(N1CCN(Cc3ccc(C(C)(C)C#N)cc3)CC1)n2Cc1ccccc1F` [Compound 39, 2-(4-((4-(7-(2-Fluorobenzyl)-3-methyl-2,6-dioxo-2,3,6,7-tetrahydro-1H-purin-8-yl)piperazin-1-yl)methyl)phenyl)-2-methylpropanenitrile], for which, in data set [1], the CC50 was above 40 µM. Besides, the EC90 with West Nile virus is above 30 µM.
As to `Cc1cc(C)cc(N2CCN(c3nc4c(c(=O)[nH]c(=O)n4C)n3Cc3ccccc3F)CC2)c1` [Compound 27, 8-(4-(3,5-Dimethylphenyl)piperazin-1-yl)-7-(2-fluorobenzyl)-3-methyl-3,7-dihydro-1H-purine-2,6-dione], the CC50 in data set [1] was above 30 µM. Besides, in the data set on West Nile virus, the EC90 is 10 µM.
For `Cc1ccc(C)c(CN2CCN(c3nc4c(c(=O)[nH]c(=O)n4C)n3Cc3ccccc3F)CC2)c1` [Compound 1, 8-(4-(2,5-dimethylbenzyl)piperazin-1-yl)-7-(2-fluorobenzyl)-3-methyl-3,7-dihydro-1H-purine-2,6-dione], in that order: 12 µM and 1.2 µM.
In the case of `Cn1c(=O)[nH]c(=O)c2c1nc(N1CCN(Cc3ccc(C(C)(C)C)cc3)CC1)n2Cc1ccccc1C(F)(F)F` [Compound 16, 8-(4-(4-(tert-Butyl)benzyl)piperazin-1-yl)-3-methyl-7-(2-(trifluoromethyl)benzyl)-3,7-dihydro-1H-purine-2,6-dione], the CC50 in data set [1] was determined as 12.4 µM. Also, the EC90 with West Nile virus was 1.2 µM.
On the same counts, the results for `Cn1c(=O)[nH]c(=O)c2c1nc(N1CCN(Cc3ccc(C(F)(F)F)cc3)CC1)n2Cc1ccccc1F` [Compound 34, 7-(2-Fluorobenzyl)-3-methyl-8-(4-(4-(trifluoromethyl)benzyl)piperazin-1-yl)-3,7-dihydro-1H-purine-2,6-dione] are above 30 µM and 9.4 µM.
Take `Cn1c(=O)[nH]c(=O)c2c1nc(N1CCN(Cc3ccc(C(C)(C)C)cc3)CC1)n2Cc1ccncc1F` [Compound 20, 8-(4-(4-(tert-Butyl)benzyl)piperazin-1-yl)-7-((3-fluoropyridin-4-yl)methyl)-3-methyl-3,7-dihydro-1H-purine-2,6-dione]: in data set [1], the CC50 is 22.1 µM. For the same molecule, in the data set on West Nile virus, the EC90 came out at 2.6 µM.
Consider `Cc1ccc(C)c(C(=O)N2CCN(c3nc4c(c(=O)[nH]c(=O)n4C)n3Cc3ccccc3F)CC2)c1` [Compound 43, 8-(4-(2,5-Dimethylbenzoyl)piperazin-1-yl)-7-(2-fluorobenzyl)-3-methyl-3,7-dihydro-1H-purine-2,6-dione], for which the CC50 in data set [1] is above 40 µM. In the data set on West Nile virus, the EC90 was above 10 µM.
Take `Cn1c(=O)[nH]c(=O)c2c1nc(N1CCN(Cc3ccc(C(C)(C)C)cc3)C(C(=O)O)C1)n2Cc1ccccc1F` (stereo not drawn) [Compound 37, 1-(4-(tert-butyl)benzyl)-4-(7-(2-fluorobenzyl)-3-methyl-2,6-dioxo-2,3,6,7-tetrahydro-1H-purin-8-yl)piperazine-2-carboxylic Acid]: the CC50 in data set [1] was above 40 µM. For the same molecule, in the data set on West Nile virus, the EC90 was above 10 µM.
